target: T1, c-Myc-Max heterodimers (Homo sapiens, UniProt P01106); test: Electrophoretic mobility shift assay (EMSA) of c-Myc-Max dimerization and DNA binding; details: Table 1; 100 μM compound; Myc-Max/DNA band intensity relative to control; read-out: Inhibition at 100 μM (%)
T1 construct: c-Myc bHLH-ZIP domain (residues 353-437); His6-TEV protease substrate tag; made in house; host or cells: bacteria (pET151 vector for Myc)
Protocol: The ability of a small-molecule to interfere with c-Myc-Max dimerization is conveniently assessed through the disruption of the c-Myc-Max/DNA ternary complex by an electrophoretic mobility shift assay (EMSA) using fluorescently-labelled DNA, and subsequently quantified by densitometry.(23) Accordingly, a 100-member library was screened for the ability to disrupt the c-Myc-Max dimer.
These were performed essentially as described previously (23). Briefly, Ni^+-agarose-purified His6-tagged c-Myc bHLH-ZIP domain (residues 353-437) was used for all binding assays as was the His6-tagged 151 residue isoform of Max, otherwise referred to as Max(S) (residues 2-151) (21). For each binding reaction, the proteins were allowed to heterodimerize at a concentration of 30 nM each in the presence of 20 nM of a 5′-HEX-tagged double-stranded 22-base pair oligonucleotide 5′-hexachlorofluoresceine-[…]-3′ (SEQ ID NO: 1) containing a consensus c-Myc binding site (CACGTG) and the indicated concentration of small molecule inhibitor. Control reactions contained the same oligonucleotide in the presence of 60 nM of the 160 residue isoform of Max referred to as Max(L) (21). All binding reactions were prepared in a buffer consisting of PBS (pH 7.3), 1 mmol/L EDTA, 0.1% NP40, 5% glycerol, 1 mmol/L DTT, and 0.4 mg/mL bovine serum albumin. Electrophoresis was performed on 8% polyacrylamide/bisacrylamide (80:1) gels in […] (23). Each reaction was run on at least three separate occasions.
EMSAs were performed essentially as described utilizing bacterially-expressed recombinant proteins purified nearly to homogeneity.(23) Experiments with Max homodimers used the His6-tagged 160 amino acid isoform of the protein, termed Max(L), which homodimerizes and binds DNA well. For studies with Myc-Max heterodimers, the His6-tagged 151 residue isoform of Max [Max(S)] was used, which binds DNA well as a heterodimer with Myc but poorly as a homodimer.(23) Recombinant Myc protein, expressed in the pET151 vector, consisted of the His6-TEV protease substrate-tagged 85 amino acid bHLH-ZIP domain. (23) Each protein was purified by Ni-agarose affinity chromatography as previously described. (23) The His6-TEV tag was removed from the Myc protein by TEV protease cleavage followed by re-purification using Ni-agarose affinity chromatography to remove the His6-TEV protease and the cleaved His6-TEV tag as previously described. Binding assays were performed with 30 nM of each protein and 30 nM of a 6-carboxy-2′,4,4′,5′,7,7′-hexachlorofluorescein (HEX)-tagged double-stranded oligonucleotide containing a consensus Myc binding site (IDT, Coralville, Iowa).(23)

T1 sequence (P01106 368-452, one chain of several): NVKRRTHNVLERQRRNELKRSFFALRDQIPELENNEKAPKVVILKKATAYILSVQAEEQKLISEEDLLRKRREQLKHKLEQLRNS

inhibition at 100 µM [%]	SMILES
8	O=C(O)c1ccccc1Nc1ccc([N+](=O)[O-])c2nonc12 [Compound 3i, 2-((7-Nitrobenzo[c][1,2,5]oxadiazol-4-yl)amino)benzoic acid]
11	Cc1ccccc1Nc1ccc([N+](=O)[O-])c2nonc12 [Compound 3e, 7-Nitro-N-(o-tolyl)benzo[c][1,2,5]oxadiazol-4-amine]
13	O=[N+]([O-])c1ccc(Nc2ccccc2O)c2nonc12 [Compound 3g, 2-((7-Nitrobenzo[c][1,2,5]oxadiazol-4-yl)amino)phenol]
~40	O=[N+]([O-])c1ccc(Nc2ccccc2Br)c2nonc12 [Compound 3f, N-(2-Bromophenyl)-7-nitrobenzo[c][1,2,5]oxadiazol-4-amine]
0	COc1ccccc1Nc1ccc([N+](=O)[O-])c2nonc12 [Compound 3h, N-(2-Methoxyphenyl)-7-nitrobenzo[c][1,2,5]oxadiazol-4-amine]
0	O=C(O)c1cccc(Nc2ccc([N+](=O)[O-])c3nonc23)c1 [Compound 3m, 3-((7-Nitrobenzo[c][1,2,5]oxadiazol-4-yl)amino)benzoic acid]

SMILES	inhibition at 100 µM [%]
O=[N+]([O-])c1ccc(NCc2ccccc2)c2nonc12 [Compound 3c, N-Benzyl-7-nitrobenzo[c][1,2,5]oxadiazol-4-amine]	0
O=[N+]([O-])c1ccc(N2CCCCC2)c2nonc12 [Compound 3d, 4-Nitro-7-(piperidin-1-yl)benzo[c][1,2,5]oxadiazole]	10
O=[N+]([O-])c1ccc(Oc2ccccc2-c2ccccc2)c2nonc12 [Compound 3j, 4-([1,1′-Biphenyl]-2-yloxy)-7-nitrobenzo[c][1,2,5]oxadiazole]	36
O=[N+]([O-])c1ccc(NC2CCCCC2)c2nonc12 [Compound 3b, N-Cyclohexyl-7-nitrobenzo[c][1,2,5]oxadiazol-4-amine]	11

same assay, conditions: Table 2; 100 μM compound; Myc-Max/DNA band intensity relative to control; read-out: Inhibition at 100 μM (%)

inhibition at 100 µM [%]	SMILES
2	CC(=O)Nc1ccc(Nc2ccccc2-c2ccccc2)c2nonc12 [Compound 5a, N-(7-([1,1′-Biphenyl]-2-ylamino)benzo[c][1,2,5]oxadiazol-4-yl)acetamide]
0	O=[N+]([O-])c1ccc(Nc2ccccc2-c2ccccc2)cc1 [Compound 7, N-(4-Nitrophenyl)-[1,1′-biphenyl]-2-amine]
17	O=C(O)CCC(=O)Nc1ccc(Nc2ccccc2-c2ccccc2)c2nonc12 [Compound 5d, 4-((7-([1,1′-Biphenyl]-2-ylamino)benzo[c][1,2,5]oxadiazol-4-yl)amino)-4-oxobutanoic acid]
0	COC(=O)Nc1ccc(Nc2ccccc2-c2ccccc2)c2nonc12 [Compound 5c, Methyl (7-([1,1′-biphenyl]-2-ylamino)benzo[c][1,2,5]oxadiazol-4-yl)carbamate]

same assay, conditions: Table 10; 100 μM small-molecule, EMSA; read-out: % Inhibition of c-Myc-Max Dimerization

inhibition at 100 µM [%]	SMILES
25	N#Cc1ccc(-c2cc(Nc3ccc([N+](=O)[O-])c4nonc34)ccc2C(=O)O)cc1 [Compound 3jc62-6]
16	Cc1cccc(-c2cc(C(=O)O)ccc2Nc2ccc([N+](=O)[O-])c3nonc23)c1 [Compound 3j53-5]
2	CC(C)(C)c1ccc(-c2cc(C(=O)O)ccc2Nc2ccc([N+](=O)[O-])c3nonc23)cc1 [Compound 3jc53-12]
0	Cc1cccc(-c2cc(Nc3ccc([N+](=O)[O-])c4nonc34)ccc2C(=O)O)c1 [Compound 3jc62-2]
41	O=C(O)c1ccc(Nc2ccc([N+](=O)[O-])c3nonc23)c(-c2ccc(-c3ccccc3)cc2)c1 [Compound 3jc53-3]
10	O=C(O)c1ccc(Nc2ccc([N+](=O)[O-])c3nonc23)c(-c2ccccc2)c1 [Compound 3jc42]
0	O=C(O)c1ccc(Nc2ccc([N+](=O)[O-])c3nonc23)cc1-c1ccccc1 [Compound 3jc62-7]
34	CCc1ccc(-c2cc(C(=O)O)ccc2Nc2ccc([N+](=O)[O-])c3nonc23)cc1 [Compound 3jc53-10]
0	CC(C)c1ccc(-c2cc(C(=O)O)ccc2Nc2ccc([N+](=O)[O-])c3nonc23)cc1 [Compound 3jc53-11]
0	Cc1ccccc1-c1cc(Nc2ccc([N+](=O)[O-])c3nonc23)ccc1C(=O)O [Compound 3jc62-1]
7	Cc1ccccc1-c1cc(C(=O)O)ccc1Nc1ccc([N+](=O)[O-])c2nonc12 [Compound 3jc53-4]
18	O=C(O)c1ccc(Nc2ccc([N+](=O)[O-])c3nonc23)c(-c2ccccc2-c2ccccc2)c1 [Compound 3jc53-1]
6	O=C(O)c1ccc(-c2cc(C(=O)O)ccc2Nc2ccc([N+](=O)[O-])c3nonc23)cc1 [Compound 3jc53-15]
0	O=C(O)c1ccc(Nc2ccc([N+](=O)[O-])c3nonc23)c(-c2ccc(C(F)(F)F)cc2)c1 [Compound 4jc23-6]
8	N#Cc1cccc(-c2cc(Nc3ccc([N+](=O)[O-])c4nonc34)ccc2C(=O)O)c1 [Compound 3jc62-5]
0	O=C(O)c1ccc(Nc2ccc([N+](=O)[O-])c3nonc23)c(-c2cccc(-c3ccccc3)c2)c1 [Compound 3jc53-2]
0	Cc1ccc(-c2cc(Nc3ccc([N+](=O)[O-])c4nonc34)ccc2C(=O)O)cc1 [Compound 3jc62-3]
0	N#Cc1ccccc1-c1cc(Nc2ccc([N+](=O)[O-])c3nonc23)ccc1C(=O)O [Compound 3jc62-4]
44	N#Cc1ccccc1-c1cc(C(=O)O)ccc1Nc1ccc([N+](=O)[O-])c2nonc12 [Compound 3jc53-7]
4	COc1ccc(-c2cc(C(=O)O)ccc2Nc2ccc([N+](=O)[O-])c3nonc23)cc1 [Compound 3jc53-14]

same assay, conditions: Table 11; 100 uM, EMSA; read-out: % Inhibition of c-Myc-Max Dimerization

inhibition at 100 µM [%]	SMILES
2	N#Cc1ccc(Nc2ccccc2-c2ccccc2)cc1 [SF-3-078]
0	O=[N+]([O-])c1ccc(Nc2ccccc2-c2ccccc2)cc1O [SF-3-101]
0	NC(=O)c1cc(Nc2ccccc2-c2ccccc2)ccc1[N+](=O)[O-] [SF-3-104A]
0	COC(=O)c1ccc(Nc2ccccc2-c2ccccc2)cc1 [SF-3-105]
0	N#Cc1cc([N+](=O)[O-])ccc1Nc1ccccc1-c1ccccc1 [SF-3-079]
0	O=[N+]([O-])c1ccc(Nc2ccccc2-c2ccccc2)cc1 [SF-3-068]
9	N#Cc1ccc(Nc2ccccc2-c2ccccc2)c(Cl)c1 [SF-3-083]
0	COC(=O)c1cc([N+](=O)[O-])ccc1Nc1ccccc1-c1ccccc1 [SF-3-106]
5	O=C(O)c1cc(Nc2ccccc2-c2ccccc2)ccc1[N+](=O)[O-] [SF-3-070]
0	O=[N+]([O-])c1ccc(Nc2ccccc2-c2ccccc2)nc1 [SF-3-081]
0	Nc1ccc(Nc2ccccc2-c2ccccc2)cc1 [SF-3-098]
0	NC(=O)c1cc([N+](=O)[O-])ccc1Nc1ccccc1-c1ccccc1 [SF-3-103A]
0	N#Cc1cc(Nc2ccccc2-c2ccccc2)ccc1[N+](=O)[O-] [SF-3-080]
0	NC(=O)c1ccc(Nc2ccccc2-c2ccccc2)cc1 [SF-3-093A]

same assay, conditions: read-out: Inhibition at 100 μM (%), Table 1; 100 μM compound; Myc-Max/DNA band intensity relative to control

SMILES	inhibition at 100 µM [%]
O=[N+]([O-])c1ccc(Nc2ccccc2)c2nonc12 [Compound 3a, 7-Nitro-N-phenylbenzo[c][1,2,5]oxadiazol-4-amine]	2
O=[N+]([O-])c1ccc(Nc2ccc(-c3ccccc3)cc2)c2nonc12 [Compound 3n]	28
Cc1ccc(Nc2ccc([N+](=O)[O-])c3nonc23)cc1 [Compound 3o, 7-Nitro-N-(p-tolyl)benzo[c][1,2,5]oxadiazol-4-amine]	0
